The results in this text go back to paper PMC3150281, “Two Group A Streptococcal Peptide Pheromones Act through Opposing Rgg Regulators to Control Biofilm Development” (PLoS Pathogens, 2011).

One series concerns Pshp3 luxAB reporter. In words: Luciferase reporter assay, Pshp3-luxAB, with synthetic peptides. The format is cell-based, Streptococcus pyogenes NZ131. The following applies: for Induction of luciferase activity at Pshp3 / Induction of luciferase at Pshp3 in wild-type bacteria: 50 nM peptide in CDM; for Induction of luciferase activity at Pshp3: crude peptide (31-50% pure), DMSO vehicle control, representative of at least three experiments; for Induction of luciferase at Pshp3 in wild-type bacteria: wild-type reporter strain JCC174 (mutated shp3 start codon); for Response at Pshp3 in Δrgg2 strain: Δrgg2 reporter strain JCC175. How it is done:
(§1) Figure 3 SHP stimulation of luciferase production. For panels A and C, overnight GAS cultures were diluted into CDM and followed for growth and light production over time. For panels B and D-H, reporter strains were grown to log-phase (OD600 between 0.3 and 0.5) and then diluted 13-fold into conditioned (panel B) or fresh CDM containing 50 nM of the indicated peptide (panels D-H). For all synthetic peptide experiments, DMSO was included as a vehicle control. Data shown are representative of at least three independent experiments. (A) Expression of shp3 under its own promoter from a multi-copy plasmid (pSHP3) induces luciferase expression at both Pshp2 (triangles) and Pshp3 (squares); pLZ12-Sp is the vector-only control. (B) Luciferase-inducing activity is present in a cell-free culture supernatant prepared from mid-log phase Δrgg3 donor (JCC131) but not in wild-type (NZ131) or Δrgg3-shp3 (JCC132)-conditioned supernatants; Δrgg3-shp3 (JCC159) was used as the reporter strain, and fresh medium was included as a control. (C) Luciferase activity of a Δrgg3-shp3 strain (JCC168) expressing truncated versions of shp3 indicates the importance of the C-terminus. All truncation plasmids were derived from pSHP3; pSHP3_17-23 includes a methionine to initiate translation. (D) Synthetic full-length (sSHP3) and C-terminal eight amino acids (sSHP3-C8), but not reverse peptide (sSHP3-rev), induce luciferase activity in a Δrgg3-shp3 reporter strain (JCC168). (E) Amino acid substitutions within the C-terminus of SHP3 alter its reporter-inducing activity in a Δrgg3-shp3 reporter strain (JCC168). sSHP3-C8: DIIIIVGG; the sequences of synthetic peptides with amino acids substitutions are shown in the panel legend. […] Reverse peptide (sSHP2-C8-rev) was included as a control. (G) sSHP3-C8 induces a sustained response from the Pshp2 reporter in the wild-type strain (BNL148), while luciferase activity of a Δrgg3-shp3 strain (BNL150) wanes. (H) Synthetic C8 peptides stimulate modest luciferase activity in Δrgg2 strains with integrated Pshp2 (solid lines; BNL152) or Pshp3 (dotted lines; JCC175) reporters.
(§2) For luciferase assays, isolated colonies from the strains of interest were picked from a freshly streaked plate, inoculated into THY broth and grown overnight at 30°C. In the morning, cells were diluted 100-fold into CDM and incubated at 37°C. At each time point, 50 µL of each culture was removed to an opaque 96-well plate, samples were exposed to decyl aldehyde (Sigma) fumes for one minute, and counts per second (CPS) were quantified using a Wallac 1450 microbeta scintillation counter; the optical density (OD) at 600 nm was also measured at each time point. Relative light units (RLU) were calculated by normalizing CPS to OD. For the conditioned media experiment, strains of interest were grown in CDM to an OD of 0.3 to 0.5, cells were spun down, and supernatants were passed through a 0.22 µm filter; log-phase Δrgg3-shp3 reporter cells (JCC159) were diluted 1∶12 into conditioned supernatants, and light activity and OD were monitored as described above. For experiments with synthetic peptides, reporter strains were grown to an OD of 0.3 to 0.5 and then diluted into fresh CDM containing the peptide of interest, and light activity and OD were monitored as described above.
Synthetic peptides were purchased from Neo-Peptide (Cambridge, MA). Purities of crude preparations used in luciferase assays ranged from 31% to 50%. 95% pure preparations were used for electrophoretic mobility shift assays (EMSA) as described below. All peptides were reconstituted as 2 mM stocks in DMSO and stored in aliquots at -80°C. Subsequent dilutions for working stocks (50 µM) were made in DMSO and stored at −20°C.

The test system of series [1] is Rgg3 (Streptococcus pyogenes NZ131 (serotype M49)). In words: EMSA. The following applies: 20 mM HEPES pH 7.9, 100 mM KCl, 12.5 mM MgCl2, 0.2 mM EDTA, 0.5 mM DTT, 0.5 mM CaCl2, 50 ug/mL salmon sperm DNA, 0.001 U/uL poly(dI-dC), 100 ug/mL BSA, 12% …. (In general: A gel shift assay detects complexes by their altered migration in electrophoresis.)
A further series concerns Pshp2 luxAB reporter. In words: Luciferase reporter assay, Pshp2-luxAB, with synthetic peptides. The format is cell-based, Streptococcus pyogenes NZ131. The following applies: for Induction of luciferase at Pshp2 in wild-type bacteria: wild-type reporter strain BNL148, 50 nM peptide in CDM; for Maximal induction at Pshp2 in Δrgg2 strain: Δrgg2 reporter strain BNL152. How it is done:
as §1, §2
Synthetic peptides were purchased from Neo-Peptide (Cambridge, MA). Purities of crude preparations used in luciferase assays ranged from 31% to 50%. […]
In general terms: In a reporter assay the amount or activity of a reporter protein is the signal.

The next series has as its system Rgg3-Pshp3 DNA complex. Kind of series: EMSA, effect of peptide on Rgg3 binding to Pshp3 probe. Also noted: species or system Streptococcus pyogenes NZ131. Conditions: 2 µM pure (>95%) peptide added 20 min after 10 nM FAM probe; room temperature; native PAGE. How it is done:
(§3) The NZ131 rgg3 gene (Spy 49_0449c) was amplified using gene-specific primers (rgg3_fwd_NdeI/rgg3_rev_BamHI) and cloned into a modified pET expression vector bearing N-terminal His-6 and SUMO tags; the resulting vector, pCA102, was electroporated into E. coli C41(DE3) before each purification. Expression of His6-sumo-rgg3 was induced at an OD600 of 0.8 with 0.5 mM IPTG for six hours at 30°C. Cells were pelleted and suspended in Buffer A (20 mM sodium phosphate buffer, pH 7.5; 1.5 mM MgCl2, 280 mM NaCl, 20 mM imidazole, 10 mM β-mercaptoethanol) with 0.1 mg mL^−1 lysozyme, 0.01 mg mL^−1 DNaseI (Sigma) and Complete EDTA-free protease inhibitor (Roche). Cells were disrupted by sonication on ice, and cellular debris was removed by centrifugation at 45,000 x g for 20 min at 4°C. His6-SUMO-Rgg3 was adsorbed to a HisTrap-HP Nickel column (GE Biosciences), then washed with 50 mM imidazole and eluted with 300 mM imidazole. The eluate was immediately exchanged into fresh Buffer A using a Zeba spin desalting column, 7K MWCO (Thermo Scientific). […]
(§4) All DNA fragments for EMSAs were amplified from chromosomal NZ131 DNA by PCR using primers described in Table S1, with select primers containing 5′-FAM fluorescent tags (Integrated DNA Technologies). […] All gel shifts were detected by fluorescence imaging using a Typhoon PhosphorImager (GE Life Sciences).

For a further series, the system named is Rgg3-Pshp2 DNA complex. Kind of series: EMSA, effect of peptide on Rgg3 binding to Pshp2 probe. The following applies: 2 µM pure (>95%) peptide added 20 min after 10 nM FAM probe; room temperature; native PAGE. On the set-up: species or system Streptococcus pyogenes NZ131. How it is done: as §3, §4
In series [2] the test system is GAS NZ131 biofilm biomass. In words: Biofilm assay, crystal violet staining. The format is cell-based, Streptococcus pyogenes NZ131. Conditions: 50 nM peptide. Here is the method: Figure 6 Influence of Rgg regulators on biofilm production. SHPs can enhance biofilm biogenesis via the Rgg2/3 regulatory circuit and counter biofilm disassembly promoted by RopB. Crystal violet staining was performed to measure biofilm biomass of NZ131 derivatives grown 48 hours in 24-well polystyrene plates with (dark gray bars) or without (light gray bars) the addition of 50 nM sSHP3-C8. Levels of biofilm production were normalized to that of untreated NZ131 (wild type). Error bars indicate standard error from a minimum of three independent experiments.
Assays were performed as described by Manetti et al, with slight modifications. Briefly, each strain was grown overnight in THY at 30°C, diluted 1∶10 into fresh CDM, and 0.5 mL volumes were aliquoted to three separate wells of a 24-well polystyrene plate. When indicated, synthetic peptide was added to a final concentration of 50 nM. Plates where incubated at 37°C with 5% CO2 for 24 hours, then wells were washed with PBS and fresh CDM (containing peptide, if appropriate) was added. After an additional 24 hours of growth, each well was washed three times with PBS and stained with 0.2% crystal violet for 10 min. Excess crystal violet was aspirated off, and biofilms were washed three times with PBS. The biomass was then suspended in 1% SDS, and the absorbance at 540 nm was measured. Each strain was tested a minimum of three independent times on separate days, and each trial included NZ131 as the reference strain.

[3] abbreviates: Δrgg3-shp3 reporter strain JCC168.

For the substance “EIIIIVGG [sSHP3-C8 with aspartic acid substituted by glutamate]”, the “Induction of luciferase activity at Pshp3” value in the series on Pshp3 luxAB reporter (setting [3]) was “retained full activity”.

In series [1], Pshp2 probe returned a K half of 100 nM.

Consider “DIIIIVGG [sSHP3-C8, synthetic peptide containing the C-terminal eight amino acids of SHP3 (DIIIIVGG)]”, for which, in the series with Pshp3 luxAB reporter, the “Induction of luciferase at Pshp3 in wild-type bacteria” value is “stimulate induction and cross-induction”. Also, the “Response of Pshp3 reporter in ΔoppD mutant” value with Pshp3 luxAB reporter (ΔoppD reporter strain JCC163, 50 nM peptide, response restored by pOppD) is reported as “fails to respond”. Also, the “Response at Pshp3 in Δrgg2 strain” value in the series on Pshp3 luxAB reporter (50 nM peptide) was “no response”. In addition, the “Induction of luciferase activity at Pshp3” value in the series on Pshp3 luxAB reporter (setting [3]) is “Luciferase induction was also observed”. In addition, in the series with Pshp3 luxAB reporter (Δrgg3-shp3 reporter strain JCC168, Pshp3, 50 nM peptide), the “Reporter induction relative to sSHP3 at identical molar concentrations” value is “more than 10 fold”. Also, the “Induction of luciferase at Pshp2 in wild-type bacteria” value in the series with Pshp2 luxAB reporter was “stimulate induction and cross-induction”. Besides, in the series on Pshp2 luxAB reporter (50 nM peptide), the “Maximal induction at Pshp2 in Δrgg2 strain” value is approximately 40 fold. Also, in the series with Pshp2 luxAB reporter (Δrgg3-shp3 reporter strain BNL150, 50 nM peptide, compared with wild type BNL148), the “Luciferase activity at Pshp2 over time in Δrgg3-shp3 strain” value is “wanes”. The “Disruption of Rgg3 binding to Pshp3 DNA” value in the series on Rgg3-Pshp3 DNA complex is “Rgg3-DNA complexes were disrupted”. For the same substance, the “Disruption of Rgg3 binding to Pshp2 DNA” value with Rgg3-Pshp2 DNA complex is listed as “Rgg3-DNA complexes were disrupted”. Further, the “Biofilm formation, wild-type NZ131” value in series [2] (48 hours in CDM, 24-well polystyrene plates, normalized to untreated NZ131, minimum of three experiments) is “two-fold increase”. Moreover, in series [2] (ΔoppD (JCC135), 48 hours, crystal violet), the “Biofilm production, ΔoppD mutant” value was “could not stimulate biofilms”. Moreover, the “Biofilm production, Δrgg2 mutant” value in series [2] (Δrgg2 (JCC137), 48 hours, crystal violet) was “could not stimulate biofilms”. The “Biofilm production, Δrgg3 mutant” value in series [2] (Δrgg3 (JCC131), 48 hours, crystal violet) is given as “did not further enhance biofilms”. For the same substance, the “Biofilm production, Δrgg3-shp3 mutant” value in series [2] (Δrgg3-shp3 (JCC132), 48 hours, crystal violet) is reported as “partially complemented”. Moreover, in series [2] (ΔropB (BNL146), 48 hours, crystal violet), the “Biofilm biomass, ΔropB strain” value is reported as “increased six-fold”.

Pshp3 probe: in series [1], the K half stood at 100 nM.

As for “NIIIIVGG [sSHP3-C8 with aspartic acid replaced by asparagine]”, the “Induction of luciferase activity at Pshp3” value in the series with Pshp3 luxAB reporter (setting [3]) is given as “decreased activity”.

On to “sSHP2-C8: synthetic C-terminal eight amino acids of SHP2 (DILIIVGG)”, for which, in the series on Pshp3 luxAB reporter, the “Induction of luciferase at Pshp3 in wild-type bacteria” value was “stimulate induction and cross-induction”. Moreover, the “Response at Pshp3 in Δrgg2 strain” value with Pshp3 luxAB reporter (50 nM peptide) is “no response”. Besides, the “Induction of luciferase at Pshp2 in wild-type bacteria” value with Pshp2 luxAB reporter was “stimulate induction and cross-induction”. Moreover, the “Maximal induction at Pshp2 in Δrgg2 strain” value with Pshp2 luxAB reporter (50 nM peptide) is 7 fold. Further, the “Disruption of Rgg3 binding to Pshp3 DNA” value in the series with Rgg3-Pshp3 DNA complex was “only induced a small amount of disruption”. Further, the “Disruption of Rgg3 binding to Pshp2 DNA” value in the series with Rgg3-Pshp2 DNA complex is reported as “only induced a small amount of disruption”.

As to “DIIIIVG- [sSHP3-C8 without the C-terminal glycine]”, the “Induction of luciferase activity at Pshp3” value in the series with Pshp3 luxAB reporter (setting [3]) was “significantly decreased light activity”.

In the case of “-IIIIVGG [sSHP3-C8 without the N-terminal aspartic acid]”, in the series with Pshp3 luxAB reporter (setting [3]), the “Induction of luciferase activity at Pshp3” value is “complete loss of luciferase activity”.
